Reference: article PMC7354492, “Drugs Commonly Applied to Kidney Patients May Compromise Renal Tubular Uremic Toxins Excretion” (Toxins, 2020)
Structures can show the parent of a compound that is named as a salt. Where two headings read alike, the source gives them in different places.

T1: OAT1 (Homo sapiens, UniProt Q4U2R8)
T1 sequence (Q4U2R8 1-563): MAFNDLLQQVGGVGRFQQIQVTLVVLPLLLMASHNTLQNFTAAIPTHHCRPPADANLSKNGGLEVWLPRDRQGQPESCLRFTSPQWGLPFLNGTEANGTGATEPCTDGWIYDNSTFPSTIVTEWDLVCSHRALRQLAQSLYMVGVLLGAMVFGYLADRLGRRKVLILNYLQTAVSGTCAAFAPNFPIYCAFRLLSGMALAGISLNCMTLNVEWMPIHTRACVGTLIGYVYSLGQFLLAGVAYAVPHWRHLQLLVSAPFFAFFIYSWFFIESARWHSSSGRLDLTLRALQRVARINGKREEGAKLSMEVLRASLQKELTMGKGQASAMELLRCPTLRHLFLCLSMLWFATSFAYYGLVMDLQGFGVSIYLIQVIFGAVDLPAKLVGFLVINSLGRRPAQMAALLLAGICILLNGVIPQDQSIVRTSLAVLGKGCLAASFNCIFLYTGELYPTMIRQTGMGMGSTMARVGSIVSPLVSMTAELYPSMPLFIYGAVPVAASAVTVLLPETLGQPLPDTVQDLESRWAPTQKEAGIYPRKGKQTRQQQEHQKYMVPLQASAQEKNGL

B1: OAT1 (Homo sapiens) (protein)
chain: MAFNDLLQQVGGVGRFQQIQVTLVVLPLLLMASHNTLQNFTAAIPTHHCRPPADANLSKNGGLEVWLPRDRQGQPESCLRFTSPQWGLPFLNGTEANGTGATEPCTDGWIYDNSTFPSTIVTEWDLVCSHRALRQLAQSLYMVGVLLGAMVFGYLADRLGRRKVLILNYLQTAVSGTCAAFAPNFPIYCAFRLLSGMALAGISLNCMTLNVEWMPIHTRACVGTLIGYVYSLGQFLLAGVAYAVPHWRHLQLLVSAPFFAFFIYSWFFIESARWHSSSGRLDLTLRALQRVARINGKREEGAKLSMEVLRASLQKELTMGKGQASAMELLRCPTLRHLFLCLSMLWFATSFAYYGLVMDLQGFGVSIYLIQVIFGAVDLPAKLVGFLVINSLGRRPAQMAALLLAGICILLNGVIPQDQSIVRTSLAVLGKGCLAASFNCIFLYTGELYPTMIRQTGMGMGSTMARVGSIVSPLVSMTAELYPSMPLFIYGAVPVAASAVTVLLPETLGQPLPDTVQDLESRWAPTQKEAGIYPRKGKQTRQQQEHQKYMVPLQASAQEKNGL

Assays:
[1] = target: T1, OAT1; settings: read-out: IC50 of uremic toxin in ciPTEC-OAT1 system; cited from earlier work
[2] = tested on: plasma proteins; settings: cited from earlier work; for bound to plasma proteins: PBUTs in plasma, ref 68 (IS, PCS), ref 69 (KA); for Protein Binding (%): ref www.drugbank.ca
[3] = Human clearance and half life of tested drugs; format: in vivo
[4] = cited from earlier work
[5] = target: T1, OAT1; assay: OAT1-mediated fluorescein uptake inhibition assay in ciPTEC-OAT1; settings: for lowest drug concentration with statistically significant decrease (p<0.05) of % fluorescein uptake, with IS: co-incubation with IS; for lowest drug concentration with statistically significant decrease (p<0.05) of % fluorescein uptake, with IS / lowest drug concentration with statistically significant decrease (p<0.05) of % fluorescein uptake, with KA / lowest drug concentration with statistically significant decrease (p<0.05) of % fluorescein uptake, with PCS: reference = toxin alone; for lowest drug concentration with statistically significant decrease (p<0.05) of % fluorescein uptake, with KA: co-incubation with KA; for lowest drug concentration with statistically significant decrease (p<0.05) of % fluorescein uptake, with PCS: co-incubation with PCS; for IC50 at 10 min: human, ciPTEC-OAT1 mature monolayers, pH 7.4, probe fluorescein 1 µM
Procedure: Uptake arrest was performed by washing with ice-cold HBSS (Life Technologies Europe BV, Roskilde, Denmark), and then the cells were lysed by 100 µL 0.1 M NaOH for 10 min, at room temperature and under mild shaking. […] Background values were subtracted and normalized arbitrary fluorescence unit (AFU) data were converted into percentage (%).
In order to replicate the uremic condition present in CKD patients, a specific mixture of eight known anionic PBUTs (Table S1), predominantly derived from endogenous metabolism pathways and food digestion in the gut, was used at concentrations corresponding to those found in patients.
All data are expressed as mean ± standard deviation (SD) of at least three separate experiments. Inhibition data were fitted according to one-site total binding saturation curve using non-linear regression analysis ((inhibitor) vs. response-variable slope) and Vmax values were calculated according to Michaelis-Menten kinetics using non-linear regression analysis. […] All experiments were performed four times.

[6] = cited from earlier work; for T1/2 (pharmacologic half life): ref 44 (pravastatin: ref 45)
[7] = tested on: OAT1; settings: read-out: IC50 (uric acid uptake, OAT1); OAT1-expressing Flp-HEK293 cells; ref Sato et al. [58]; cited from earlier work
[8] = substrate: O=C1OC2(c3ccc(O)cc3Oc3cc(O)ccc32)c2ccccc21; assay: cells, lysate or membranes; settings: pH 7.4; 37.0 °C
[9] = co-incubation with UTox, lowest drug concentration

Molecule	Renal Clearance (% of Total CL) [3] [%]	Therapeutic Concentrations ([4]; ref 44 (pravastatin: ref 45)) [µM]	Protein Binding (%) [2]	Renal CL ([6]; human) [mL/min/kg]	T1/2 (pharmacologic half life) [6]	IC50 [5] [µM]	also measured
Cc1ccc(O[C@@H]2O[C@H](C(=O)O)[C@@H](O)[C@H](O)[C@H]2O)cc1 [p-Cresylglucuronide, p-cresylglucuronide]							IC50 [1]: 2650 ± 922 µM
Cc1ccc(OS(=O)(=O)O)cc1 [p-Cresylsulfate, p-cresylsulfate]							IC50 [1]: 79 ± 14 µM; bound to plasma proteins [2]: 90–95%
O=S(=O)(O)Oc1c[nH]c2ccccc12 [Indoxyl sulfate]							bound to plasma proteins [2]: 90–95%
C[C@H](N[C@@H](CCc1ccccc1)C(=O)O)C(=O)N1CCC[C@H]1C(=O)O [Enalaprilate, enalaprilate]	100	0.04 to 0.4	50%	1.6	8–11 h		inhibition of human OAT1 (in words) ([5]; captopril and enalaprilate only at high concentrations with no therapeutic relevance): inhibited; Total CL ([6]; human): 1.6 mL/min/kg
CN/C(=N/CCSCc1nc[nH]c1C)NC#N [Cimetidine]	97	1 to 16	20%	7.9	1.5–4 h	888 ± 198	
O=C(O)c1cc(=O)c2ccccc2[nH]1 [Kynurenic acid, kynurenic acid]							bound to plasma proteins [2]: 70%
CC[C@H](C)C(=O)O[C@H]1C[C@H](O)C=C2C=C[C@H](C)[C@H](CC[C@@H](O)C[C@@H](O)CC(=O)O)[C@H]21 [Pravastatin, pravastatin]	45	0.08 to 0.3	60%	6.3	1–2.5 h	13.8 ± 8.5	Therapeutic Concentrations ([4]; second value in cell): 0.43 µM; lowest drug concentration with statistically significant decrease (p<0.05) of % fluorescein uptake, with IS [5]: 5 µM; lowest drug concentration with statistically significant decrease (p<0.05) of % fluorescein uptake, with KA [5]: 5 µM; lowest drug concentration with statistically significant decrease (p<0.05) of % fluorescein uptake, with PCS [5]: 1 µM; Percentage (%) Fluorescein Uptake at the Lowest Drug Concentration in the presence of UTox [5, 9]: 27.8 ± 2.6%; IC50 at 10 min [5]: 23.2 ± 8.3 µM
CCCCC(=O)N(Cc1ccc(-c2ccccc2-c2nnn[nH]2)cc1)[C@H](C(=O)O)C(C)C [Valsartan, valsartan]	29	2 to 14	94–97%	0.14	6–9 h	11.5 ± 3.5	IC50 [7]: 16 µM; Percentage (%) Fluorescein Uptake at the Lowest Drug Concentration in the presence of UTox [5]: 24.7 ± 4.5%
NS(=O)(=O)c1cc(C(=O)O)c(NCc2ccco2)cc1Cl [Furosemide, furosemide]		6 to 30					
O=C(O)[C@H]1O[C@@H](Oc2c[nH]c3ccccc23)[C@H](O)[C@@H](O)[C@@H]1O [Indoxyl-β-D-glucoronide, indoxyl-β-D-glucoronide]							IC50 [1]: 492 ± 68 µM
C[C@H](CS)C(=O)N1CCC[C@H]1C(=O)O [Captopril, captopril]		0.2 to 5				2020 ± 465	
CCCCc1nc(Cl)c(CO)n1Cc1ccc(-c2ccccc2-c2nn[nH]n2)cc1 [Losartan, losartan]	11	0.5 to 1.5	99%	0.9	1.5–2 h	8.6 ± 2.5	IC50 [7]: 12 µM; lowest drug concentration with statistically significant decrease (p<0.05) of % fluorescein uptake, with IS [5]: 1 µM; lowest drug concentration with statistically significant decrease (p<0.05) of % fluorescein uptake, with KA [5]: 5 µM; lowest drug concentration with statistically significant decrease (p<0.05) of % fluorescein uptake, with PCS [5]: 1 µM; Percentage (%) Fluorescein Uptake at the Lowest Drug Concentration in the presence of UTox [5, 9]: 23.5 ± 3.5%; IC50 at 10 min [5]: 3.1 ± 0.7 µM
NCCCC[C@H](N[C@@H](CCc1ccccc1)C(=O)O)C(=O)N1CCC[C@H]1C(=O)O [Lisinopril, lisinopril]	100	0.01 to 0.16	negligible				
CCC(C)(C)C(=O)O[C@H]1C[C@@H](C)C=C2C=C[C@H](C)[C@H](CC[C@@H]3C[C@@H](O)CC(=O)O3)[C@H]21 [Simvastatin, simvastatin]	13				2 h		
B1							Km [8]: 0.93 ± 0.09 µM
